Measurements published in ChEMBL document CHEMBL6087474, “Discovery of an Efficacious RET PROTAC Degrader with Enhanced Antiproliferative Activity against Resistant Cancer Cells Harboring RET Solvent-Front Mutations” (J Med Chem, 2025).
Activity calls are given as the source filed them. The calls are words filed in the database; no cut-off is given here.

Tests used:
[1] = Effect on Shc protein level in mouse BaF3 cells stably expressing KIF5B-RET-G810C mutant assessed as fold change at 11.1 nM measured after 6 hrs by Western blot analysis (reference value: 1); type: functional
[2] = Induction of apoptosis in mouse BaF3 cells stably expressing KIF5B-RET-G810C mutant assessed as late apoptotic cells at 900 nM measured after 48 hrs by Annexin V-FITC/7-AAD staining based flow cytometric analysis (reference value: 1.96 %); type: functional
[3] = Effect on Shc protein level in mouse BaF3 cells stably expressing KIF5B-RET-V804M mutant assessed as fold change at 11.1 nM measured after 6 hrs by Western blot analysis (reference value: 1); type: functional
BaF3 [4] = experiment: Antitumor activity against mouse BaF3 cells stably expressing KIF5B-RET-G810C mutant implanted in male BALB/c mouse model assessed as reduction in tumor weight at 30 mg/kg, ip administered daily for 14 days relative to control; type: functional; set-up: scale not given: the % may be the effect or the level left; details: time 14 day
[5] = Induction of apoptosis in mouse BaF3 cells stably expressing wildtype KIF5B-RET fusion protein assessed as viable cells at 300 nM measured after 48 hrs by Annexin V-FITC/7-AAD staining based flow cytometric analysis (reference value: 86.65 %); type: functional; details: read-out: Activity
[6] = Induction of apoptosis in mouse BaF3 cells stably expressing wildtype KIF5B-RET fusion protein assessed as early apoptotic cells at 100 nM measured after 48 hrs by Annexin V-FITC/7-AAD staining based flow cytometric analysis (reference value: 9.92 %); type: functional
[7] = Effect on RET protein level in mouse BaF3 cells stably expressing KIF5B-RET-V804M mutant assessed as fold change at 11.1 nM measured after 6 hrs by Western blot analysis (reference value: 1); type: functional
[8] = Effect on RET protein level in mouse BaF3 cells stably expressing KIF5B-RET-G810R mutant assessed as fold change at 100 nM measured after 6 hrs by Western blot analysis (reference value: 1); type: functional
BaF3 [9] = experiment: PROTAC activity at CRBN/KIF5B-RET-G810R mutant (unknown origin) expressed in mouse BaF3 cells assessed as induction of RET degradation at 300 nM measured after 6 hrs by Western blot analysis relative to control; type: cell-based; details: Homo sapiens
BaF3 [10] = experiment: Antiproliferative activity against mouse BaF3 cells stably expressing KIF5B-RET-G810R mutant incubated for 72 hrs by CCK-8 assay; type: functional, cell-based; details: BaF3, 72 h
[11] = Effect on Shc protein level in mouse BaF3 cells stably expressing KIF5B-RET-V804M mutant assessed as fold change at 100 nM measured after 6 hrs by Western blot analysis (reference value: 1); type: functional
[12] = Effect on Shc protein level in mouse BaF3 cells stably expressing wildtype KIF5B-RET assessed as fold change at 100 nM measured after 6 hrs by Western blot analysis; type: functional
[13] = Induction of apoptosis in mouse BaF3 cells stably expressing KIF5B-RET-G810C mutant assessed as late apoptotic cells at 100 nM measured after 48 hrs by Annexin V-FITC/7-AAD staining based flow cytometric analysis (reference value: 1.96 %); type: functional
[14] = Induction of apoptosis in mouse BaF3 cells stably expressing wildtype KIF5B-RET fusion protein assessed as necrotic cells at 11.1 nM measured after 48 hrs by Annexin V-FITC/7-AAD staining based flow cytometric analysis (reference value: 2.40 %); type: functional
BaF3 [15] = experiment: PROTAC activity at CRBN/CK1alpha in mouse BaF3 cells overexpressing KIF5B-RET assessed as induction of […] at 10 to 1000 nM incubated for 6 hrs by Western blot analysis; type: cell-based; details: dose 10-1000 nM
BaF3 [16] = experiment: PROTAC activity at CRBN/KIF5B-RET (unknown origin) expressed in mouse BaF3 cells assessed as induction of RET degradation at 1000 nM measured after 6 hrs by Western blot analysis relative to control; type: cell-based
BaF3 [17] = experiment: Antiproliferative activity against mouse BaF3 cells stably expressing CCDC6-RET-G810C mutant incubated for 72 hrs by CCK-8 assay; type: functional, cell-based; details: BaF3, 72 h
BaF3 [18] = experiment: Antiproliferative activity against mouse BaF3 cells stably expressing CCDC6-RET incubated for 72 hrs by CCK-8 assay; type: functional, cell-based; details: BaF3, 72 h
BaF3 [19] = experiment: Antiproliferative activity against mouse BaF3 cells stably expressing KIF5B-RET fusion protein incubated for 72 hrs by CCK-8 assay; type: functional, cell-based; details: BaF3, 72 h
BaF3 [20] = experiment: Antiproliferative activity against mouse BaF3 cells stably expressing KIF5B-RET-G810S mutant incubated for 72 hrs by CCK-8 assay; type: functional, cell-based; details: BaF3, 72 h
[21] = Induction of apoptosis in mouse BaF3 cells stably expressing KIF5B-RET-G810C mutant assessed as early apoptotic cells at 100 nM measured after 48 hrs by Annexin V-FITC/7-AAD staining based flow cytometric analysis (reference value: 8.57 %); type: functional
[22] = Induction of apoptosis in mouse BaF3 cells stably expressing wildtype KIF5B-RET fusion protein assessed as viable cells at 11.1 nM measured after 48 hrs by Annexin V-FITC/7-AAD staining based flow cytometric analysis (reference value: 86.65 %); type: functional; details: read-out: Activity
[23] = Effect on RET protein level in mouse BaF3 cells stably expressing KIF5B-RET-V804M mutant assessed as fold change at 100 nM measured after 6 hrs by Western blot analysis (reference value: 1); type: functional
BaF3 [24] = experiment: Antitumor activity against mouse BaF3 cells stably expressing KIF5B-RET-G810C mutant implanted in male BALB/c mouse model assessed as tumor growth inhibition at 30 mg/kg, ip administered daily for 14 days relative to control; type: functional; details: BaF3, 336 h, time 14 day, read-out: TGI
BaF3 [25] = experiment: Antitumor activity against mouse BaF3 cells stably expressing KIF5B-RET-G810C mutant implanted in male BALB/c mouse model assessed as tumor growth inhibition at 10 mg/kg, ip administered daily for 14 days relative to control; type: functional; details: BaF3, 336 h, time 14 day, read-out: TGI
[26] = PROTAC activity at CRBN/KIF5B-RET-G810C mutant (unknown origin) expressed in mouse BaF3 cells assessed as induction of RET degradation measured after 6 hrs by Western blot analysis; type: cell-based; details: BaF3, 6 h
[27] = Effect on Shc protein level in mouse BaF3 cells stably expressing wildtype KIF5B-RET assessed as fold change at 11.1 nM measured after 6 hrs by Western blot analysis; type: functional
[28] = Effect on Shc protein level in mouse BaF3 cells stably expressing KIF5B-RET-V804M mutant assessed as fold change at 300 nM measured after 6 hrs by Western blot analysis (reference value: 1); type: functional
[29] = Induction of apoptosis in mouse BaF3 cells stably expressing KIF5B-RET-G810C mutant assessed as necrotic cells at 33.3 nM measured after 48 hrs by Annexin V-FITC/7-AAD staining based flow cytometric analysis (reference value: 2.89 %); type: functional
[30] = Effect on Shc protein level in mouse BaF3 cells stably expressing KIF5B-RET-G810C mutant assessed as fold change at 100 nM measured after 6 hrs by Western blot analysis (reference value: 1); type: functional

COc1ccc(CN2C3CC2CN(c2ccc(-c4cc(-c5cnn(C6CCN(CCCCCC#Cc7cccc8c7CN(C7CCC(=O)NC7=O)C8=O)CC6)c5)cn5ncc(C#N)c45)cn2)C3)cn1 (stereo not given)
fold change (FC) [1]: 1
Activity [2]: 3.71%
fold change (FC) [3]: 1
Activity (BaF3 [4]): 34.4%
viability at 0.3 µM [5]: 50.2%
Activity [6]: 33.58%
fold change (FC) [7]: 0.7
fold change (FC) [8]: 0.9
Activity (BaF3 [9]): 43%
IC50 (BaF3 [10]): 150 nM
fold change (FC) [11]: 0.9
fold change (FC) [12]: 1
Activity [13]: 2.61%
Activity [14]: 3%
Activity (BaF3 [15]): inactive
Activity (BaF3 [16]): 74%
IC50 (BaF3 [17]): 40 nM
IC50 (BaF3 [18]): 10 nM
IC50 (BaF3 [19]): 10 nM
IC50 (BaF3 [20]): 90 nM
Activity [21]: 19.9%
viability at 0.0111 µM [22]: 83.8%
fold change (FC) [23]: 0.1
inhibition in vivo at 30 mg/kg (BaF3 [24]): 49.2%
inhibition in vivo at 10 mg/kg (BaF3 [25]): 31.6%
DC50 [26]: 73.8 nM
fold change (FC) [27]: 1
fold change (FC) [28]: 1
Activity [29]: 2.77%
fold change (FC) [30]: 1
